Assay results as given in article PMC7380166, “How to Study the Metabolism of New Psychoactive Substances for the Purpose of Toxicological Screenings—A Follow-Up Study Comparing Pooled Human Liver S9, HepaRG Cells, and Zebrafish Larvae” (Frontiers in Chemistry, 2020).

How the values were obtained:
[1] = after assumed consumption of a blotter containing 1P-LSD; ref Grumann et al., [2019]; cited from earlier work
[2] = after subcutaneous administration of 1P-LSD to rats; ref Halberstadt et al., [2019]; cited from earlier work
zebrafish larvae [3] = test: Zebrafish larvae exposure, metabolite identification by LC-HRMS/MS; details: 24 h
zebrafish larvae [4] = test: In vivo maximum-tolerated concentration (MTC) study in zebrafish larvae; set-up: species or system zebrafish (Danio rerio); details: for Survival rate: 24-h treatment, fifteen larvae
Experimental: Internal protocols based on published standard methods (Westerfield, [2007]) were used to perform zebrafish husbandry and the maximum-tolerated concentration (MTC) testing was based on a previous study (Richter et al., [2019a]). Danieau's medium [17 mM NaCl, 2 mM KCl, 0.12 mM MgSO4, 1.8 mM Ca(NO3)2, 1.5 mM HEPES, pH 7.1–7.3, and 1.2 μM methylene blue] at 28°C was used to raise zebrafish larvae of the AB wild-type strain. For MTC testing, 96-well plates were used with 100 μl of medium and one larva per well. Drug exposition was started 4 dpf using 0, 0.01, 0.1, 1, 10, 50, or 100 μM final concentrations of 3,4-DMA-NBOMe, ephylone, 4F-MDMB-BINACA, 4F-PHP, or 1P-LSD, respectively. The drug exposure in the incubator at 28°C lasted 24 h. The final DMSO concentration was 1% (v/v) for all experiments. Monitoring of the larvae was done using a LEICA M205 FA stereo microscope (Leica Mikrosysteme Vertrieb GmbH, Wetzlar, Germany) to detect developmental defects and/or decreased survival rates. Fifteen larvae were used for each experiment.

[5] = ref Wagmann et al., cited from earlier work
HepaRG cells = test: Incubations with HepaRG cells, metabolite identification by LC-HRMS/MS; format: in vitro ADME, human; details: 24 h
monooxygenases = details: initial monooxygenases activity screenings described elsewhere; ref Caspar et al., [2018a]; Wagmann et al., [2019b],[c]; cited from earlier work

CCC(=O)n1cc2c3c(cccc31)C1=C[C@@H](C(=O)N(CC)CC)CN(C)[C@@H]1C2 [Metabolite 1P-LSD, 1-propionyl-d-lysergic acid diethylamide]
Detection in serum and urine samples of an intoxicated patient [1]: could not be detected | Detection in rat plasma [2]: able to detect | Number of phase I metabolites detected, Zebrafish larvae (zebrafish larvae [3]; 100 μM in medium): 22 | Number of phase II metabolites detected, Zebrafish larvae (zebrafish larvae [3]; 100 μM in medium): 3 | Absolute peak area, Zebrafish larvae [100 µM] (zebrafish larvae [3]; 100 µM parent NPS in medium, larvae 4 dpf, larvae extract, one replicate of n = 3, n.d. = not detected): 2.92E+09 | Survival rate (zebrafish larvae [4]; 0.01 μM, larvae 4 dpf): 100% | Survival rate (zebrafish larvae [4]; 0.1 μM, larvae 4 dpf): 100% | Survival rate (zebrafish larvae [4]; 1 μM, larvae 4 dpf): 100% | Survival rate (zebrafish larvae [4]; 10 μM, larvae 4 dpf): 100% | Survival rate (zebrafish larvae [4]; 50 μM, larvae 4 dpf): 100% | Survival rate (zebrafish larvae [4]; 100 μM, larvae 4 dpf): 100% | Survival rates for all tested concentrations (zebrafish larvae [4]; 0.01 to 100 μM, larvae 4 dpf, 24 h): 100% | Concentration considered non-toxic for zebrafish larvae (4 dpf) (zebrafish larvae [4]; 24 h exposure via medium): 100 µM | Malformations (zebrafish larvae [4]; up to 100 μM, larvae 4 dpf, 24 h): no malformations | Number of phase I metabolites detected, pHLS9 [25 μM] ([5]; 25 μM, [2019c]): 8 (Wagmann et al., [2019c]) | Number of phase II metabolites detected, pHLS9 [25 μM] ([5]; 25 μM, [2019c]): 0 (Wagmann et al., [2019c]) | Detection in pHLS9 [25 µM] ([5]; 1P-LSD and metabolites, n = 2, according to literature, 2019b): + | Absolute peak area, HepaRG [25 μM] (HepaRG cells; 25 μM parent NPS, cell culture medium, one replicate of n = 3, n.d. = not detected): 3.60E+07 | Number of phase I metabolites detected, HepaRG [25 μM] (HepaRG cells; 25 μM): 14 | Number of phase II metabolites detected, HepaRG [25 μM] (HepaRG cells; 25 μM): 1 | Absolute peak area, HepaRG [250 μM] (HepaRG cells; 250 μM parent NPS, cell culture medium, one replicate of n = 3, n.d. = not detected): 5.41E+06 | Number of phase I metabolites detected, HepaRG [250 μM] (HepaRG cells; 250 μM): 15 | Number of phase II metabolites detected, HepaRG [250 μM] (HepaRG cells; 250 μM): 2 | Monooxygenases involved in metabolism (monooxygenases): N-dealkylated and hydroxylated exclusively by CYP3A4
